The values below come from patent publication US10857201B2, “NNIF and nNIF-related peptides and related methods” (UNIVERSITY OF UTAH RESEARCH FOUNDATION, priority 2016, dated 2020).

Experiment [1] deals with nuclear chromatin decondensation in PMNs. Description: Nuclear decondensation assay in PMA-treated neutrophils. Type of experiment: cell-based, human. To be noted: PMA 20 nM; peptides 1 nM, Cl-amidine 10 μM, sivelestat 200 nM. On the procedure:
FIG. 7B is a graph depicting nuclear areas that were measured (n=4) using IMAGEJ™ software (mean nuclear pixel area per cell±SEM). Paired Student's t test, *P<0.05, § P=0.057.
FIG. 12A depicts nuclear decondensation (white arrowheads and magnified image) that were assessed as in FIGS. 7A-7E after a 1 hour preincubation in medium alone, with neutrophil elastase (NE) inhibitor sivelestat (SIVL; 200 nM), or with CRISPP or CRISPP-SCR (both 1 nM) followed by treatment with PMA (20 nM) and an additional 1 hour incubation (n=3). Green fluorescence=nuclear DNA, (60× magnification, scale bar=20 μm). Nuclear area was quantified using IMAGEJ™ software (nuclear pixel area per cell±SEM). One way ANOVA with Tukey's post hoc testing; **P<0.01, ***P<0.001.
Nuclear decondensation was identified as described (see Papayannopoulos V, et al., J Cell Biol. 2010; 191 (3):677-91). Five randomly selected high-power visual fields per sample were captured via confocal microscopy and analyzed for nuclear area using the cell-permeable, fluorescent DNA dye SYTO® Green. The nuclear pixel areas of >100 individual cells per high-power field were determined using IMAGEJ™ software (NIH).

Experiment [2] deals with C57BL/6 mice challenged with LPS. The experiment is described as follows: Mouse model of systemic inflammation induced by LPS (endotoxemia), survival. The experiment is classed as in vivo. The protocol:
Animals with no treatments or given LPS alone were studied in parallel (n≥10 mice for each condition). **P<0.01, log-rank (Mantel-Cox) statistical tool used. The survival difference between nNIF-LPS and CRISPP-LPS compared to CRISPP-SCR-LPS trended toward significance (§ P=0.051).
Control mice were i.p. injected with saline alone. Fluid resuscitation and antibiotic treatment were not used in these experiments. Survival was assessed over 50 or 72 hour intervals. All mice were included in the final survival analysis.

For experiment [3], the system named is reactive oxygen species generation by PMNs. The experiment is described as follows: Reactive oxygen species generation (dihydrorhodamine, flow cytometry). The experiment is classed as cell-based, human. The conditions noted are these: LPS 100 ng/mL, 1 hour. On the procedure: FIG. 6B is a graph depicting reactive oxygen species generation that was measured by dihydrorhodamine detection after LPS stimulation (100 ng/mL, 1 hour).
Human PMNs isolated from healthy adult whole blood were resuspended to a concentration of 2×10^6 cells/mL in M-199 media and pre-incubated±CRISPP (1 nM) or CRISPP-SCR (1 nM) peptide for 1 hour at 37° C. in 5% CO2/95% air. The PMNs were then stimulated with LPS (100 ng/mL) for 1 hour, washed, and resuspended with a dihydrorhodamine ([…]; MOLECULAR PROBES®) and catalase (1000 Units/mL; SIGMA-ALDRICH®) mixture and incubated at 37° C. for 10 minutes. After incubation, samples were placed at 4° C. and analyzed for ROS-dependent fluorescence using flow cytometry as performed in the University of Utah core facility (BECTON DICKINSON™, […]™ software).
Without being bound by any specific theory, it was hypothesized that placentally expressed HTRA1, a serine protease, regulates the formation of NET-inhibitory peptides through cleavage of AAT. To test this hypothesis, term and preterm placenta were assessed for HTRA1 expression via western blotting. HTRA1 and AAT plasma expression from term and preterm infants and adults were determined by ELISA. Bioactive (0.5 μg) or placental eluted HTRA1 was incubated with AAT (8 μM) for 18 hours at 37° C. Carboxy-terminus fragments of AAT were detected using western blotting and mass spectrometry. […]
Background: In flow cytometry, cells or beads pass a laser one at a time.

Entries after “also recorded” stand apart in the source; their conditions may differ.

For the substance “KFNKPFVFLMIEQNTKSPLFMGKVVNPTQ (listed as Homo sapiens) [nNIF]”, in experiment [1], the “nuclear decondensation (number of decondensed nuclei)” value is “dramatically reduced”. Also, in experiment [2] (second experiment, compared to LPS alone), the “survival advantage at 72 hours” value is given as “durable”. In addition, the “generation of reactive oxygen species (ROS)” value in experiment [3] is listed as “did not inhibit”.

Regarding “M_IPPEVKFNKPFVFLMIDQNTKVPLFMGK [CRISPP, consensus peptide based on factors present in the blood of patients with cancer]”, in experiment [1], the “nuclear decondensation (number of decondensed nuclei)” value was “dramatically reduced”. For the same substance, the “animals alive at 50 hours” value in experiment [2] (i.p. LPS, first experiment, n=6 per group) was “all”. The “generation of reactive oxygen species (ROS)” value in experiment [3] was “did not inhibit; also recorded: not inhibited”.
